≈ marks a conversion by molar mass, not a printed value.
What was measured:
[1] = Oral bioavailability in Sprague-Dawley rat at 10 mg/kg; format: ADME, organism-based; conditions: in vivo
[2] = Clearance in Sprague-Dawley rat at 10 mg/kg, po; format: ADME, organism-based; design: dose 10 mg/kg, route oral; conditions: in vivo
[3] = Lipophilicity, change in log P of the compound; conditions: octanol/water
[4] = Clearance in human liver microsomes at 3 uM by LC/MS/MS analysis; format: ADME
[5] = target: T1, Tyrosine-protein kinase SYK (Homo sapiens, UniProt P43405)
Description: Inhibition of full length Syk (unknown origin) using biotinylated peptide substrate

[6] = target: T1, Tyrosine-protein kinase SYK; remark: listed apart in the source
Description: Inhibition of Syk in antihuman IgM-stimulated human Ramos cells assessed as decrease in BCR-mediated BLNK phosphorylation by cellular assay

[7] = target: T1, Tyrosine-protein kinase SYK; remark: listed apart in the source
Description: Inhibition of Syk in goat antihuman IgE-induced CD63 expression in human whole blood by FACS analysis

Cytochrome P450 1A2 = target: T2, Cytochrome P450 1A2 (Homo sapiens, UniProt P05177); experiment: Inhibition of CYP1A2 (unknown origin); format: ADME
T2 sequence (P05177 whole entry): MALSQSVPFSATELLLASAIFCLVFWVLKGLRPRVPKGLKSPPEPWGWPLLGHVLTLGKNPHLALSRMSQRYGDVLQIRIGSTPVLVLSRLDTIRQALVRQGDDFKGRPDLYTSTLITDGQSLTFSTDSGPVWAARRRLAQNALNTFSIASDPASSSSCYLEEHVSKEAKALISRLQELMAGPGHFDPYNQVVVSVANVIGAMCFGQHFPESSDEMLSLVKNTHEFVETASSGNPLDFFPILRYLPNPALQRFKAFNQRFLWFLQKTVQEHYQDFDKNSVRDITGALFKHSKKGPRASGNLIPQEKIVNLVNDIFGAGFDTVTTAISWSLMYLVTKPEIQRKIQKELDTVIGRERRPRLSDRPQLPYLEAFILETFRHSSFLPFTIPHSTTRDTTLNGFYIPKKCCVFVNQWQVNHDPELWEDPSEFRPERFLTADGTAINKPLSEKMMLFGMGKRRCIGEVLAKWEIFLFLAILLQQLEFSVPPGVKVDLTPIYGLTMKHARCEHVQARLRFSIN

Cytochrome P450 2C9 = Cytochrome P450 2C9 (Homo sapiens, UniProt P11712); experiment: Inhibition of CYP2C9 (unknown origin); format: ADME
Cytochrome P450 2C19 = Cytochrome P450 2C19 (Homo sapiens, UniProt P33261); experiment: Inhibition of CYP2C19 (unknown origin); format: ADME
Cytochrome P450 2D6 = Cytochrome P450 2D6 (Homo sapiens, UniProt P10635); experiment: Inhibition of CYP2D6 (unknown origin); format: ADME
[8] = Unbound fraction in human plasma; format: ADME, cell-free
[9] = Solubility of the compound in crystalline form in simulated intestinal fluid under fed condition; format: physicochemical
[10] = Solubility of the compound in crystalline form in simulated intestinal fluid under fasted condition; format: physicochemical
[11] = target: Tyrosine-protein kinase SYK (Rattus norvegicus, UniProt Q64725); experiment: In vitro inhibition of Syk phosphorylation in rat whole blood; format: tissue-based
Rattus norvegicus [12] = experiment: Antiinflammatory activity in po dosed Lewis rat collagen-induced arthritis model assessed as disease parameter measured as body weight treated twice daily on arthritic days 0 to 7
Rattus norvegicus [13] = experiment: Antiinflammatory activity in po dosed Lewis rat collagen-induced arthritis model assessed as disease parameter measured as ankle diameter treated twice daily on arthritic days 0 to 7
Rattus norvegicus [14] = experiment: Antiinflammatory activity in po dosed Lewis rat collagen-induced arthritis model assessed as disease parameter measured as ankle inflammation treated twice daily on arthritic days 0 to 7 by histological analysis
Rattus norvegicus [15] = experiment: Antiinflammatory activity in po dosed Lewis rat collagen-induced arthritis model assessed as disease parameter measured as knee inflammation treated twice daily on arthritic days 0 to 7 by histological analysis
Rattus norvegicus [16] = experiment: Antiinflammatory activity in po dosed Lewis rat collagen-induced arthritis model assessed as disease parameter measured as peritosteal bone width treated twice daily on arthritic days 0 to 7 by histological analysis
[17] = Half life in rat liver microsomes at 3 uM by LC/MS/MS analysis; format: ADME
[18] = Half life in dog liver microsomes at 3 uM by LC/MS/MS analysis; format: ADME, Canis lupus familiaris
[19] = Half life in human liver microsomes at 3 uM by LC/MS/MS analysis; format: ADME
[20] = Clearance in Sprague-Dawley rat at 0.4 mg/kg, iv; format: ADME, organism-based; design: dose 0.4 mg/kg, route intravenous; conditions: in vivo
[21] = Clearance in non-naive beagle dog at 0.4 mg/kg, iv; format: ADME, organism-based, Canis lupus familiaris; design: dose 0.4 mg/kg, route intravenous; conditions: in vivo
[22] = Volume of distribution at steady state in Sprague-Dawley rat at 0.4 mg/kg, iv; format: ADME, organism-based; design: dose 0.4 mg/kg, route intravenous; conditions: in vivo, read-out: Vdss
[23] = Volume of distribution at steady state in non-naive beagle dog at 0.4 mg/kg, iv; format: ADME, organism-based, Canis lupus familiaris; design: dose 0.4 mg/kg, route intravenous; conditions: in vivo, read-out: Vdss
[24] = Oral bioavailability in Sprague-Dawley rat at 1 mg/kg; format: ADME, organism-based; conditions: in vivo
[25] = Oral bioavailability in non-naive beagle dog at 1 mg/kg; format: ADME, organism-based, Canis lupus familiaris; conditions: in vivo
[26] = Plasma protein binding in Sprague-Dawley rat at 1 mg/kg, po after 24 hrs by LC-MS/MS analysis; format: ADME, organism-based; design: dose 1 mg/kg, route oral; conditions: read-out: PPB (converted)
[27] = Plasma protein binding in non-naive beagle dog at 1 mg/kg, po after 24 hrs by LC-MS/MS analysis; format: ADME, organism-based, Canis lupus familiaris; design: dose 1 mg/kg, route oral; conditions: read-out: PPB (converted)
[28] = Plasma protein binding in human at 1 mg/kg, po after 24 hrs by LC-MS/MS analysis; format: ADME, organism-based; design: dose 1 mg/kg, route oral; conditions: read-out: PPB (converted)
[29] = Apparent permeability from apical to basolateral side in human Caco2 cells at 5 uM; format: ADME, cell-based; conditions: Caco-2
[30] = Apparent permeability from basolateral to apical side in human Caco2 cells at 5 uM; format: ADME, cell-based; conditions: Caco-2
[31] = target: Tyrosine-protein kinase JAK2 (Homo sapiens, UniProt O60674); experiment: Inhibition of Jak2 in erythropoietin-stimulated human TF1 cells assessed as assessed as phospho-Stat5 after 1 hr incubation; format: cell-based, TF-1
[32] = target: Mast/stem cell growth factor receptor Kit (Mus musculus, UniProt P05532); experiment: Inhibition of cKit in stem cell factor-stimulated bone marrow derived mouse mast cells assessed as phosphorylation after 1 hr incubation
[33] = target: Proto-oncogene tyrosine-protein kinase receptor Ret (Homo sapiens, UniProt P07949); experiment: Inhibition of Ret in human […] cells assessed as assessed as phosphorylation after 1 hr incubation; format: cell-based
[34] = target: Vascular endothelial growth factor receptor 2 (Homo sapiens, UniProt P35968); experiment: Inhibition of KDR in VEGF-stimulated HUVEC assessed as phosphorylation after 1 hr incubation
Vascular endothelial growth factor receptor 2, sequence (P35968 whole entry): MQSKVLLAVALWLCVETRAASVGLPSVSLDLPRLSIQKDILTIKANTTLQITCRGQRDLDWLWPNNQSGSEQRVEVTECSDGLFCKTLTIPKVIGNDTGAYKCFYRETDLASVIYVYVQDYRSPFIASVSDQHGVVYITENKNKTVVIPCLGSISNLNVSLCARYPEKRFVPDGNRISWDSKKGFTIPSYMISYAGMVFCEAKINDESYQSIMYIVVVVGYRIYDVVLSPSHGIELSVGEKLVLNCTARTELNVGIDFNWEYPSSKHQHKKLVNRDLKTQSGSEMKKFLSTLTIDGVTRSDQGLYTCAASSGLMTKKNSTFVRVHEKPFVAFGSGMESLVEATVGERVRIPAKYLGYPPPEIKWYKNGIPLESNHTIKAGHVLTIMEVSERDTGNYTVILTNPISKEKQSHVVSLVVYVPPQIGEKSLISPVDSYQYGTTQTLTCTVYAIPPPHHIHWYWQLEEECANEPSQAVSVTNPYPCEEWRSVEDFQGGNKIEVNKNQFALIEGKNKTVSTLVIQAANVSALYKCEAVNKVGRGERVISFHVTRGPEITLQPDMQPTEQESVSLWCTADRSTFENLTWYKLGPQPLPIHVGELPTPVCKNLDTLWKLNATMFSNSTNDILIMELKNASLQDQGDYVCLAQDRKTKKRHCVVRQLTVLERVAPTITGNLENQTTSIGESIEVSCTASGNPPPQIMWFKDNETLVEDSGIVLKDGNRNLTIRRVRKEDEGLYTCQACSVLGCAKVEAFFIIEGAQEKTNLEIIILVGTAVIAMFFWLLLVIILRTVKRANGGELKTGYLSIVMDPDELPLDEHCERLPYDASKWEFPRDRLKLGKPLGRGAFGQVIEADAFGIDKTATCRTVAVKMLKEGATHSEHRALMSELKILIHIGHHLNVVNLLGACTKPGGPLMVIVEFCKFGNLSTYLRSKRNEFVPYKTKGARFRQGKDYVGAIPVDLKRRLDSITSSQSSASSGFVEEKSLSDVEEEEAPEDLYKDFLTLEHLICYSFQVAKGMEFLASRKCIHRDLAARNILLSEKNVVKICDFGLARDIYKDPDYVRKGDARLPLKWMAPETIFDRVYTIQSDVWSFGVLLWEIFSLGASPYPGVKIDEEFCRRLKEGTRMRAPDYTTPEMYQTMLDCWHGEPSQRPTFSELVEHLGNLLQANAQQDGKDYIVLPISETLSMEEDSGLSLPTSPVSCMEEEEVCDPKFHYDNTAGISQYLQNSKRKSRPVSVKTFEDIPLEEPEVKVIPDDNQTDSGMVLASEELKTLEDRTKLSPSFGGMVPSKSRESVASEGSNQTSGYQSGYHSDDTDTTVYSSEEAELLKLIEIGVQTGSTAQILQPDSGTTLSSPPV

Mast/stem cell growth factor receptor Kit, sequence (P05532 whole entry): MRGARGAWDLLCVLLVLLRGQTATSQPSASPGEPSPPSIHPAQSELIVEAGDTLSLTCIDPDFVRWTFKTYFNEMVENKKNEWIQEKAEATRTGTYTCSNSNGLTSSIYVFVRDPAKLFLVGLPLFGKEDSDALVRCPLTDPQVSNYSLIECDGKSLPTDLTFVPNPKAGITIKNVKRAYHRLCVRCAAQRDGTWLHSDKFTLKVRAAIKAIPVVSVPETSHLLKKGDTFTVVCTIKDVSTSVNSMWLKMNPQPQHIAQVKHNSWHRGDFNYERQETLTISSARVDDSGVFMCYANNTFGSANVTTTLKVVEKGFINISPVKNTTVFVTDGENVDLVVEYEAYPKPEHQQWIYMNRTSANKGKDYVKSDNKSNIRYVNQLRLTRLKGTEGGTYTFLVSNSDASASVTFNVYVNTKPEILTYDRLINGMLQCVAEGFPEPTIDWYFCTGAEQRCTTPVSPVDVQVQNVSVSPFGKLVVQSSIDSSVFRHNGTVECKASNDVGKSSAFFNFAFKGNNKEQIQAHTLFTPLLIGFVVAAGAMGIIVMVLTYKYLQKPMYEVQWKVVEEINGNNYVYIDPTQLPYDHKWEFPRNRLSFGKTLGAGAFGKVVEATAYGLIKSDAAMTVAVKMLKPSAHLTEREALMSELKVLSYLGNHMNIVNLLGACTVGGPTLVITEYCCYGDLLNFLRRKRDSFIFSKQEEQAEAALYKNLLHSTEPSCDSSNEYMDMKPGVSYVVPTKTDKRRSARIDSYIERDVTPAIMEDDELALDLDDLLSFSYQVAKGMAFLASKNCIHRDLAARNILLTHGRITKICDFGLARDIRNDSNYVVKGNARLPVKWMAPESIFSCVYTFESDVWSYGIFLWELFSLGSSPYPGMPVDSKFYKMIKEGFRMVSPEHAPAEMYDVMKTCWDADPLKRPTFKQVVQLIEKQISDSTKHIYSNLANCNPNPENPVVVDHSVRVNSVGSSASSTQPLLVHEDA
Cytochrome P450 2C19, sequence (P33261 whole entry): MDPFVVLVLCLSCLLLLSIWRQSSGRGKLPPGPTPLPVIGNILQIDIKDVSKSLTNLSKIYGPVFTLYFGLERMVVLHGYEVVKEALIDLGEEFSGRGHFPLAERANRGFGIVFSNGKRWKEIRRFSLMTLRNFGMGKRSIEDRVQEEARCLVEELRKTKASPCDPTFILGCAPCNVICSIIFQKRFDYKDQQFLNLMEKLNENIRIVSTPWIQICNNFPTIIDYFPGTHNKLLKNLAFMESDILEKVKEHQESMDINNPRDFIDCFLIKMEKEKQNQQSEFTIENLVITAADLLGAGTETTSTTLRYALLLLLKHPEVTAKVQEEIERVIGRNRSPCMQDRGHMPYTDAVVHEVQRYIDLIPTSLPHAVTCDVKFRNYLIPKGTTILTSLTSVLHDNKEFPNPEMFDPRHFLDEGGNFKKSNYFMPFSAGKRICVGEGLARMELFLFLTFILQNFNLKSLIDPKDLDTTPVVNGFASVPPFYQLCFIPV
Cytochrome P450 2C9, sequence (P11712 whole entry): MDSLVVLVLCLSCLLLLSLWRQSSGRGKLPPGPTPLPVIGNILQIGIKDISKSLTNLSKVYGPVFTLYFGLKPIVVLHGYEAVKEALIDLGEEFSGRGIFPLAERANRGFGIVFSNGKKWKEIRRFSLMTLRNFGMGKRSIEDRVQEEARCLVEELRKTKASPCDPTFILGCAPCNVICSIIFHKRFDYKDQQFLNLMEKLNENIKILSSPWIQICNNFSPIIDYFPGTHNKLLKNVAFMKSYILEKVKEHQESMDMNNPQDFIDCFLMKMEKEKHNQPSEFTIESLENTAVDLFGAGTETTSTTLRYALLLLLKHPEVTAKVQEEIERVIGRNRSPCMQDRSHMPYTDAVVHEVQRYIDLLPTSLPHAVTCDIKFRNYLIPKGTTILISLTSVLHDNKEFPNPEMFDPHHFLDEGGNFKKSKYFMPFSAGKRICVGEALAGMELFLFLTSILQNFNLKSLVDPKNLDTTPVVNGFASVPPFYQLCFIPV
Tyrosine-protein kinase SYK (Rattus norvegicus, UniProt Q64725), sequence (Q64725 whole entry): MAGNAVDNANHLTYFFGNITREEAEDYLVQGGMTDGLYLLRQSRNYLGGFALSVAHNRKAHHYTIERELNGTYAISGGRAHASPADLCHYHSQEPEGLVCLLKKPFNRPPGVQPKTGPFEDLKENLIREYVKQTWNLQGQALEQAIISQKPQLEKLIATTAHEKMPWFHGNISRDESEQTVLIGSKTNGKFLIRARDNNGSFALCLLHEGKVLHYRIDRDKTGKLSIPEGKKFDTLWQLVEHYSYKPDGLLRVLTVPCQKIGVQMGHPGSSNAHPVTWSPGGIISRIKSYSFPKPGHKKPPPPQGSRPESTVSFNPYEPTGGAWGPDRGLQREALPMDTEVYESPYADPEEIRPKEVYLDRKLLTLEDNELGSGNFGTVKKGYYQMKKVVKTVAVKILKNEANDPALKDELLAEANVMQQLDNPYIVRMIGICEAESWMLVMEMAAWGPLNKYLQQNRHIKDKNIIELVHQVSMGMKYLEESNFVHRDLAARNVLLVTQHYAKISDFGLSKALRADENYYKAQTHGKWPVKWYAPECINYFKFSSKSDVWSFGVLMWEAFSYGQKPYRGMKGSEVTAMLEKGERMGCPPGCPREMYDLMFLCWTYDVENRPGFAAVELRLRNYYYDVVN
Cytochrome P450 2D6, sequence (P10635 whole entry): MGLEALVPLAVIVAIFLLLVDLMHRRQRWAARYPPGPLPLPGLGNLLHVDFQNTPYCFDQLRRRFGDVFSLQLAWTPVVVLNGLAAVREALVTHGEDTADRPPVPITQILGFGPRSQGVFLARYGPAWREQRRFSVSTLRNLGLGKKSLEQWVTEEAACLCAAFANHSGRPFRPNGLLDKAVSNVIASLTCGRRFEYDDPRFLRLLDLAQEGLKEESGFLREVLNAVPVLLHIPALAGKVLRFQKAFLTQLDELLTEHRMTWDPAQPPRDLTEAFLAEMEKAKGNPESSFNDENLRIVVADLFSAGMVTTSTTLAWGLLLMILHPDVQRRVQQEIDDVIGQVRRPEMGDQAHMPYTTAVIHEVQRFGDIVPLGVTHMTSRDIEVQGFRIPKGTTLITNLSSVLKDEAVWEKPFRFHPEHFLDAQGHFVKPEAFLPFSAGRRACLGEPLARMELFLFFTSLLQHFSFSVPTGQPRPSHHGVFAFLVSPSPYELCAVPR

SMILES: COc1ccc(Nc2nc(-c3ccc(C(N)=O)cc3)cn3ccnc23)cc1OC
- bioavailability [1]: 22%
- CL/F [2]: 50.8 mL/min/kg
- ΔlogP [3]: 1.4

SMILES: COc1ccc(Nc2nc(-c3cccc(C(N)=O)c3)cn3ccnc23)cc1OC
- ΔlogP [3]: 1.4

SMILES: COc1ccc(Nc2nc(-c3ccc4cn[nH]c4c3)cn3ccnc23)cc1OC
- bioavailability [1]: 36%
- CL/F [2]: 35 mL/min/kg

SMILES: c1ccc(Nc2nc(-c3ccc4cn[nH]c4c3)cn3ccnc23)cc1
- CLhep predicted at 3 µM [4]: 8.17 mL/min/kg

SMILES: COc1cccc(Nc2nc(-c3ccc4cn[nH]c4c3)cn3ccnc23)c1
- IC50 [5]: 8.5 nM
- EC50 [6]: 374 nM

SMILES: CC1(O)CN(c2ccc(Nc3nc(-c4ccc5cn[nH]c5c4)cn4ccnc34)cc2)C1
- IC50 [5]: 3.9 nM
- EC50 [6]: 80 nM
- EC50 [7]: 1260 nM

SMILES: CC1(O)CCN(c2ccc(Nc3nc(-c4ccc5cn[nH]c5c4)cn4ccnc34)cc2)CC1
- CLhep predicted at 3 µM [4]: 4.5 mL/min/kg

SMILES: O=S1(=O)CCN(c2ccc(Nc3nc(-c4ccc5cn[nH]c5c4)cn4ccnc34)cc2)CC1
- CLhep predicted at 3 µM [4]: 10 mL/min/kg
- IC50 [5]: 2.1 nM
- EC50 [6]: 40 nM
- EC50 [7]: > 10000 nM

SMILES: c1cn2cc(-c3ccc4cn[nH]c4c3)nc(Nc3ccc(C4CCOCC4)cc3)c2n1
- CLhep predicted at 3 µM [4]: 2 mL/min/kg
- IC50 [5]: 3.8 nM
- EC50 [6]: 2370 nM
- EC50 [7]: > 10000 nM

SMILES: CN(CCO)c1ccc(Nc2nc(-c3ccc4cn[nH]c4c3)cn3ccnc23)cc1
- IC50 [5]: 7.6 nM
- EC50 [6]: 42 nM
- EC50 [7]: 1090 nM

SMILES: c1cn2cc(-c3ccc4cn[nH]c4c3)nc(Nc3ccc(N4CCCOCC4)cc3)c2n1
- CLhep predicted at 3 µM [4]: 5 mL/min/kg
- IC50 [5]: 23.1 nM
- EC50 [6]: 73 nM

SMILES: COc1cc(Nc2nc(-c3ccc4cn[nH]c4c3)cn3ccnc23)ccc1N1CCOCC1
- CLhep predicted at 3 µM [4]: 12.5 mL/min/kg

SMILES: c1cn2cc(-c3ccc4cn[nH]c4c3)nc(Nc3ccc(N4CCOCC4)cc3)c2n1 [ENTOSPLETINIB]
- IC50 (Cytochrome P450 1A2): > 10000 nM
- IC50 (Cytochrome P450 2C9): > 10000 nM
- IC50 (Cytochrome P450 2C19): > 10000 nM
- IC50 (Cytochrome P450 2D6): > 10000 nM
- fraction unbound [8]: 0.027
- solubility [9]: 16 µM (≈ 6.58 µg/mL)
- solubility [10]: 2 µM (≈ 0.823 µg/mL)
- EC50 [11]: 1900 nM
- ED50 (Rattus norvegicus [12]): 3.9 mg/kg
- ED50 (Rattus norvegicus [13]): 2.1 mg/kg
- ED50 (Rattus norvegicus [14]): 2.8 mg/kg
- ED50 (Rattus norvegicus [15]): 1.2 mg/kg
- ED50 (Rattus norvegicus [16]): 3 mg/kg
- CLhep predicted at 3 µM [4]: 4.83 mL/min/kg
- half-life at 3 µM [17]: 35 min
- half-life at 3 µM [18]: 23.4 min
- half-life at 3 µM [19]: 98.6 min
- clearance [20]: 4.5 mL/min/kg
- clearance [21]: 13.3 mL/min/kg
- Vd [22]: 0.52 L/kg
- Vd [23]: 1.41 L/kg
- bioavailability [24]: 67%
- bioavailability [25]: 53%
- fraction unbound at 24 h [26]: 0.008
- fraction unbound at 24 h [27]: 0.072
- fraction unbound at 24 h [28]: 0.029
- Papp A→B at 5 µM [29]: 3.2 ×10⁻⁶ cm/s
- Papp B→A at 5 µM [30]: 1.95 ×10⁻⁶ cm/s
- EC50 [31]: 453 nM
- EC50 [32]: 445 nM
- EC50 [33]: > 1000 nM
- EC50 [34]: > 1000 nM

SMILES: COc1cc(Nc2ncc(F)c(Nc3ccc4c(n3)NC(=O)C(C)(C)O4)n2)cc(OC)c1OC [R-406]
- EC50 [32]: 46 nM

— ChEMBL document CHEMBL3259702, “Discovery of GS-9973, a selective and orally efficacious inhibitor of spleen tyrosine kinase” (J Med Chem, 2014)
